Assay: Human HepG2 cell viability assay in 384 well format
Format: toxicity, cell-based
Parameters: dose 125 nL, time 70.5 hour; cytotoxicity at 70.5 h: concentration not given beside the values
Settings: HepG2 cells, read-out: Inhibition

Compound | cytotoxicity at 70.5 h [%]
O=C(NCCc1ccc(F)cc1)NCC(O)c1cccc(F)c1 (stereo unspecified) | 23.3
COCCc1noc(CN2CCCC2Cn2nc(C)nc2C)n1 (stereo unspecified) | 44.8
CCC1CN(CC(=O)N2CCCC2)CCN1CCOC (stereo unspecified) | -10.3
Cc1ccc(N2CCCC(NCc3sccc3C)C2)nn1 (stereo unspecified) | -7.95
Cc1nc(C)n(CC2CN(Cc3nc4ccccc4s3)CCO2)n1 (stereo unspecified) | 18.9
CCC1CN(CC(=O)N2CCN(C(C)=O)CC2)CCN1CCOC (stereo unspecified) | -7.53
CC(C)C(=O)NC1CCCN(C(=O)c2cc3ccccc3cc2O)C1 (stereo unspecified) | -4.18
O=C(NCc1ccccc1)NCC(O)c1cccc(F)c1 (stereo unspecified) | -6.42
CC(C)C(=O)NC1CCCN(C(=O)c2ccc(O)c(Cl)c2)C1 (stereo unspecified) | -9.92
CCN(Cc1c(F)cccc1F)Cn1nc(C)c2c(C)onc2c1=O | 2.01
Cc1cc(C)n(CC2CN(Cc3nc4ccccc4s3)CCO2)n1 (stereo unspecified) | -5.7
CCOc1cccc2c1OCC(C(=O)NS(=O)(=O)c1cncc(Br)c1)=C2 | 2.74
COc1ccc(CC(=O)N2CCC(Nc3ccc(C)nn3)CC2)cc1 | -3.12
Cc1ccc(N(C)S(=O)(=O)c2cc(C(=O)O)cs2)cc1 | 4.32
O=C(c1cnc(-c2ccccn2)s1)N1CCCC1Cn1cccn1 (stereo unspecified) | -8.6
O=C(c1cnc(-c2ncccn2)s1)N1CCCC1Cn1cccn1 (stereo unspecified) | -2.29
CC(C)Oc1ccc(C(=O)NCc2ccc3c(c2)CCCN3C)cn1 | -2.36
CCOc1cccc2c1OCC(C(=O)NS(=O)(=O)c1ccc(Cl)s1)=C2 | -7.24
CC(O)CN1CCN(C(=O)c2ccc(CN(C)C)cc2)CC1 (stereo unspecified) | -0.592
CN(Cc1noc(C2CC2)n1)C1CCN(CCn2cc(C#N)cn2)C1 (stereo unspecified) | 22.1
Cc1nc(C2CCCN2C(=O)CCOCc2ccccc2)no1 (stereo unspecified) | -8.94
Cc1cnn(C2CCCN(C(=O)c3cccc4c3OCO4)C2)c1 (stereo unspecified) | -10.4
COCCOc1ncccc1C(=O)N1CCCC1Cn1cc(C)cn1 (stereo unspecified) | -12
CC(C)c1nc(CN(C)C2CCN(CCn3cc(C#N)cn3)C2)no1 (stereo unspecified) | -14.7
Cc1nccn1C1CCCN(C(=O)c2cccc3c2OCO3)C1 (stereo unspecified) | -9.12
Cc1nc(C)n(CC2CCCN(c3ncnc4ccccc34)C2)n1 (stereo unspecified) | -6.84

Compound | cytotoxicity at 70.5 h [%]
Cc1cnn(CC2CCCCN2C(=O)c2ccccc2-n2cccn2)c1 (stereo unspecified) | -17.3
Cc1cc(C)n(CC2CCCN2C(=O)c2cccnc2N(C)C)n1 (stereo unspecified) | -8.62
CCc1nccn1C1CCCN(C(=O)c2cccc3c2OCO3)C1 (stereo unspecified) | -16
O=C(c1ccccc1OC1CCCC1)N1CCCC(n2cncn2)C1 (stereo unspecified) | -9.06
Cc1nn(C)c(Cl)c1C1CCCN1C(=O)c1cnn(C)c1C1CC1 (stereo unspecified) | -14.5
CN(C)c1ccc(CNC(=O)NCCc2cccs2)cn1 | -12.3
CN(C)c1ccc(CNC(=O)NCCc2ccccn2)cn1 | -12.8
CCn1cnnc1CNC(=O)N(C)Cc1ccc2c(c1)OCO2 | -10.2
COCCN(Cc1nc2c(cnn2C)c(=O)[nH]1)C(C)c1ccccc1 (stereo unspecified) | -2.95
O=C(c1cccc2c1OCCO2)N1CCCC(n2cccn2)C1 (stereo unspecified) | -8.22
CCCOc1cccc(C(=O)N2CCCC(n3cncn3)C2)c1 (stereo unspecified) | -13.7
O=C(c1cnc(-c2ccccn2)s1)N1CCCC(n2cccn2)C1 (stereo unspecified) | 10.2
c1nc(N2CCCC(Cn3cncn3)C2)c2sccc2n1 (stereo unspecified) | -2.8
Cc1nc(C)n(CC2CCCCN2c2ncnc3ccsc23)n1 (stereo unspecified) | -11.9
Cc1cnn(CC2CCCCN2C(=O)c2cccnc2N(C)C)c1 (stereo unspecified) | 9.64
Cc1nccn1CCCC(=O)N1CCC(N(C)c2cccnn2)CC1 | -7.52
Cc1nn(C)c(Cl)c1C1CCCN1C(=O)c1csnn1 (stereo unspecified) | -4.32
Cc1nn(C)c(Cl)c1C1CCCN1C(=O)c1cccn1C (stereo unspecified) | -10.5
Cc1ncsc1C(=O)N1CCCC1c1c(C)nn(C)c1Cl (stereo unspecified) | -13.8
N#Cc1cc(NS(=O)(=O)c2cc(C(=O)O)cc(Cl)c2Cl)ccc1F | 0.738
Cc1c(F)cc(C(=O)O)cc1S(=O)(=O)Nc1ccc(F)c(C#N)c1 | -9.42
Cc1nn(C)c(C)c1C1CCCN1C(=O)c1nccnc1N (stereo unspecified) | -8.84
CN(Cc1nnc2n1CCC2)C(=O)c1ccc2c(c1)OCCCO2 | 18.9
Cc1cc(C)n(CC2CCCN2CC(=O)N(C)Cc2ccc(C)o2)n1 (stereo unspecified) | 18
Cc1cc(C)n(CC2CCCN2C(=O)c2c(C)noc2C)n1 (stereo unspecified) | 18.5
O=C(NCCNc1ncccn1)C1CC(=O)N(C2CCCC2)C1 (stereo unspecified) | -6.36

Compound | cytotoxicity at 70.5 h [%]
CC(C)CN1CC(C(=O)NCCNc2ncccn2)CC1=O (stereo unspecified) | -0.397
O=C(NCCNc1ncccn1)C1CC(=O)N(CC2CC2)C1 (stereo unspecified) | 16.4
CN(Cc1nnc2n1CCC2)C(=O)CCc1ccc2c(c1)OCO2 | -7.61
Cc1cc(C)n2cc(CN3CCCC3Cn3nc(C)nc3C)nc2n1 (stereo unspecified) | -6.16
CCc1nc(C2CCCN2C(=O)c2ccc3c(c2)nnn3CC)no1 (stereo unspecified) | -3.25
CCc1nc(C2CCCN2C(=O)c2ccc3c(c2)nc(C)n3C)no1 (stereo unspecified) | -8.32
Cc1cnn(C2CCCN(C(=O)Cc3ccc(-n4cccn4)cc3)C2)c1 (stereo unspecified) | -3.4
CC(C)c1nc(CN2CCCN(Cc3nnc(C4CC4)o3)CC2)no1 | 1.11
Cc1nc(C)n(CC2CCCN2Cc2nc(N)c3ccccc3n2)n1 (stereo unspecified) | -4.33
CC(O)CNC(=O)NCc1cccnc1OC1CCCC1 (stereo unspecified) | -6.8
Cc1cc(NC(=O)CCN(CC2CCOC2)C2CC2)no1 (stereo unspecified) | -9.35
Cc1cc(CN(C)C(=O)c2ccnc(N(C)C)c2)no1 | -7.52
Cc1cc(C(=O)NCc2ccc(N3CCCC(C(N)=O)C3)cc2)no1 (stereo unspecified) | -12.6
COCC(C)NC(=O)c1cc(Br)c2c(c1)OCCO2 (stereo unspecified) | -10.9
Cc1cnn(CC2CN(CC(=O)N3CCc4ccccc43)CCO2)c1 (stereo unspecified) | -10.9
Cc1nc(C)n(CC2CCCN2Cc2nc3ccccc3n2C)n1 (stereo unspecified) | -7.27
Cc1nc(C)n(CC2CCCN2Cc2nc3ccccc3nc2C)n1 (stereo unspecified) | 3.65
Cc1cc(C)n(C2CCCN(C(=O)c3c(C)c(C)n[nH]c3=O)C2)n1 (stereo unspecified) | -8.79
OC(CNCCn1cccn1)c1ccc2c(c1)OCCO2 (stereo unspecified) | -2.85
CC(C)c1nc(C2CCCN2CC(=O)Nc2nncs2)no1 (stereo unspecified) | -1.18
Cn1c(CN2CCCC2c2noc(C3CC3)n2)cc(=O)n(C)c1=O (stereo unspecified) | -9.32
CCCc1noc(CN2CCCC2c2c(C)nn(C)c2OC)n1 (stereo unspecified) | -7.09
CCn1cnnc1CNC(=O)N1CCOCC1 | -13.2
COCCc1noc(CN2CCCC2c2c(C)nn(C)c2C)n1 (stereo unspecified) | -8.48
COc1ccc(F)cc1CN1CCCC(c2cc(C(N)=O)[nH]n2)C1 (stereo unspecified) | -10.6
Cc1cnn(CC2CN(CC(=O)NCc3ccccn3)CCO2)c1 (stereo unspecified) | 14.8

Compound | cytotoxicity at 70.5 h [%]
Cc1cccc(-c2noc(CN3CCc4nn(C)c(=O)cc4C3)n2)c1 | 8.08
O=C(c1cc(Cl)c2c(c1)OCCO2)N1CCCC(n2cncn2)C1 (stereo unspecified) | -10.2
Cc1nc(C)n(CC2CN(CCOc3ccccc3F)CCO2)n1 (stereo unspecified) | -10.8
CC(C)c1nc(C2CCCN(Cc3nnc(C4CC4)o3)C2)no1 (stereo unspecified) | -8.01
CNc1snc(C)c1C(=O)N1CCCC(n2ccnc2C(C)C)C1 (stereo unspecified) | -5.8
Cc1cnn(CC2CCCCN2C(=O)CN(C)C2CC2)c1 (stereo unspecified) | 16.1
Cc1nc(C2CCCN(C(=O)c3cccc4c3OCO4)C2)no1 (stereo unspecified) | -4.51
COc1ccccc1C(=O)NC(CC(=O)O)c1cccs1 (stereo unspecified) | -3.76
Cc1cc(NC(=O)NCc2ccccc2OC(F)F)n(C)n1 | -5.54
CC(CCc1ccccc1)NC(=O)Nc1cnn(CC(N)=O)c1 (stereo unspecified) | -2.53
COc1ccc(COCC(O)CNC(=O)c2cccnc2)cc1 (stereo unspecified) | 32.7
CC(Cc1ccco1)NC(=O)Nc1cnn(CC(N)=O)c1 (stereo unspecified) | -1.8
Cc1cnn(CC(C)NCc2ccc(S(C)(=O)=O)cc2)c1 (stereo unspecified) | -1.78
c1ccc(-n2nnnc2CN2CCCC(Cn3cncn3)C2)cc1 (stereo unspecified) | -0.367
O=C(NC1CCN(c2snc3ccccc23)CC1)C1CCC1 | 14.4
c1cnnc(N2CCCC2CNc2ncnc3ccccc23)c1 (stereo unspecified) | 11.3
c1cnnc(N2CCCC2CNc2nc3ccccc3o2)c1 (stereo unspecified) | -2.85
CCCc1ncc(C(=O)N2CCOC(c3nc(C)n[nH]3)C2)s1 (stereo unspecified) | -7.33
CCc1ncncc1C(=O)N1CCOC(c2nc(C)n[nH]2)C1 (stereo unspecified) | -3
CCc1nnsc1C(=O)N1CCOC(c2nc(C)n[nH]2)C1 (stereo unspecified) | 1.73
Cc1cnn(CC2CCCCN2C(=O)Cc2csc(C)n2)c1 (stereo unspecified) | -7.78
CCN1CCC(CNCc2c[nH]nc2C(C)(C)C)C1 (stereo unspecified) | -2.99
Cc1nn(C)c(N(C)C)c1CNCc1cccnc1-n1cncn1 | -5.08
